{"source": "patent US4725683A", "about": "“Fluorophenoxyphenoxypropionates and derivatives thereof” (The Dow Chemical Company, priority 1985, dated 1988)", "format_in_all_cases": "in vivo", "key": {"[1]": {"system": "Barnyard Grass", "test": "Preemergent activity", "conditions": "Echinochloa crus-galli, pre-emergence, read-out: Preemergence Control; for pest or weed control at 70 g/ha: 0.07 kgs/hectare; for pest or weed control at 280 g/ha: 0.28 kgs/hectare", "summary_of_the_method": "(§1)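 Test compound was applied in acetone mixed with an equal volume of water containing 0.1% Tween-20, sprayed preemergence onto seed beds of sandy loam soil sown with the test species. Beds were kept under identical temperature and light. A solvent-only spray served as control.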"}, "[2]": {"system": "Johnson Grass", "test": "Preemergent activity", "conditions": "Sorghum halepense, pre-emergence, read-out: Preemergence Control; for pest or weed control at 70 g/ha: 0.07 kgs/hectare; for pest or weed control at 280 g/ha: 0.28 kgs/hectare", "summary_of_the_method": "as §1"}, "[3]": {"system": "Yellow Foxtail", "test": "Preemergent activity", "conditions": "Setaria, pre-emergence, read-out: Preemergence Control; for pest or weed control at 70 g/ha: 0.07 kgs/hectare; for pest or weed control at 280 g/ha: 0.28 kgs/hectare", "summary_of_the_method": "as §1"}, "[4]": {"system": "Barnyard Grass", "test": "Postemergent activity", "summary_of_the_method": "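Potted plants about 10 cms tall were sprayed to run-off with conventional equipment using aqueous compositions. These were made by dissolving the active ingredient in acetone at twice the final concentration and diluting with an equal volume of water containing 0.1 percent TWEEN® 200 surfactant. Toxicant-free sprays served as controls. After two weeks of growth, injury was scored from 0 (no effect) to 100 (complete kill).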"}, "[5]": {"system": "Crabgrass", "test": "Postemergent activity", "summary_of_the_method": "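Potted crabgrass plants grown to roughly 10 cms tall were sprayed to run-off with aqueous compositions of the test compound, which was first dissolved in acetone at twice the final concentration and then diluted with an equal volume of water containing 0.1 percent by weight TWEEN® 200 surfactant. Pots sprayed without toxicant served as controls. After two weeks under growth-favorable conditions, plant control was scored from 0 (no effect) to 100 (complete kill).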"}, "[6]": {"system": "Johnson Grass", "test": "Postemergent activity", "method": "(§2) Representative compositions of the present invention were evaluated for the postemergence control of species of plants listed in Table A. In these evaluations, pots of the plant species listed in Table A, grown to a height of about 10 cms, were used. Aqueous spray compositions, containing various amounts of 2-[4-(2-fluoro-4-trifluoromethylphenoxy)-phenoxy]propionic acid methy ester, i.e., 125 ppm, 62.5 ppm, 31.25 ppm, 15.6 ppm, 7.8 ppm and 3.9 ppm, respectively, were applied to separate pots. The spray compositions were made by mixing the active ingredient in acetone to 1/2 the final volume, i.e., twice the final concentration. An equal amount of water was added to the active ingredient/acetone mixture wherein the water contained 0.1 percent by weight of TWEEN® 200 surfactant. The application to the plants was made to the point of run-off and was carried out with conventional spraying equipment. Other pots were sprayed with similar compositions containing no toxicant to serve as controls. Thereafter, the pots were maintained under conditions conducive for plant growth. Two weeks after treatment, the pots were examined for plant growth and evaluated on a scale of 0 to 100 where 0 represents no effect and 100 represents complete kill. The results of the examination of the treated pots are set forth below in Table A."}, "[7]": {"system": "cocklebur", "test": "Postemergent activity", "conditions": "125 ppm", "method": "as §2"}, "[8]": {"system": "cotton", "test": "Postemergent activity", "conditions": "125 ppm", "method": "as §2"}, "[9]": {"system": "jimson weed", "test": "Postemergent activity", "conditions": "125 ppm", "method": "as §2"}, "[10]": {"system": "morning glory", "test": "Postemergent activity", "conditions": "125 ppm", "method": "as §2"}, "[11]": {"system": "pigweed", "test": "Postemergent activity", "conditions": "125 ppm", "method": "as §2"}, "[12]": {"system": "rape", "test": "Postemergent activity", "conditions": "125 ppm", "method": "as §2"}, "[13]": {"system": "soybeans", "test": "Postemergent activity", "conditions": "125 ppm", "method": "as §2"}, "[14]": {"system": "sugar beets", "test": "Postemergent activity", "conditions": "125 ppm", "method": "as §2"}, "[15]": {"system": "velvet leaf", "test": "Postemergent activity", "conditions": "125 ppm", "method": "as §2"}, "[16]": {"system": "cotton", "test": "Preemergent activity", "conditions": "0.28 kgs/hectare, seeds", "method": "(§3) In a representative operation, 2-[4-(2-fluoro-4-trifluoromethylphenoxy)phenoxy]propionic acid methyl ester, to be utilized in a series of tests, is dissolved in acetone to one half of the final volume (twice the final concentration) to be used and the acetone solution in each case is admixed with an equal volume of water containing 0.1 percent by weight of Tween-20 surface active material (Tween-20 is a trademark of Atlas Chemical Company). The composition, generally in the nature of an emulsion, was employed to treat separate respective seed beds of sandy loam soil of good nutrient content wherein each seed bed contained separate groups of good viable seeds, each group being of one of a known plant species. The various beds were positioned side by side and exposed to substantially identical conditions of temperature and light. Each bed was maintained so as to prevent any interaction with the test compound in different seed beds. Each seed bed was treated with the composition as a spray employing conventional spraying equipment to deposit a predetermined amount of the compound uniformly throughout the surface of the bed. Another seed bed was treated only with the acetone-Tween-20 water mixture with no chemical added to serve as a control. After treatment, the seed beds were maintained for two weeks under greenhouse conditions conducive for good plant growth and watered as necessary. Control refers to the reduction in growth of the test species in the presence of the test chemical relative to the observed growth of the same species in the absence of the test chemical.\n(§4) Substantially the same procedures described in Example C were repeated using as the active ingredients"}, "[17]": {"system": "pigweed", "test": "Preemergent activity", "conditions": "0.28 kgs/hectare, seeds", "method": "as §3, §4"}, "[18]": {"system": "soybean", "test": "Preemergent activity", "conditions": "0.28 kgs/hectare, seeds", "method": "as §3, §4"}, "[19]": {"system": "yellow nutsedge", "test": "Preemergent activity", "conditions": "0.28 kgs/hectare, seeds", "method": "as §3, §4"}}, "data": [{"smiles": "COC(=O)C(C)Oc1ccc(Oc2ccc(Cl)cc2F)cc1", "note": "(racemic) [Example 4-Chloro-, 2-[4-(4-chloro-2-fluorophenoxy)phenoxy]propionic acid methyl ester]", "values": [{"measurement": "pest or weed control at 70 g/ha", "setting": "[1]", "result": 40, "unit": "%"}, {"measurement": "pest or weed control at 140 g/ha", "setting": "[1]; 0.14 kgs/hectare", "result": 98, "unit": "%"}, {"measurement": "pest or weed control at 280 g/ha", "setting": "[1]", "result": 98, "unit": "%"}, {"measurement": "pest or weed control at 560 g/ha", "setting": "[1]; 0.56 kgs/hectare", "result": 100, "unit": "%"}, {"measurement": "pest or weed control at 1120 g/ha", "setting": "[1]; 1.12 kgs/hectare", "result": 100, "unit": "%"}, {"measurement": "pest or weed control at 70 g/ha", "setting": "[2]", "result": 0, "unit": "%"}, {"measurement": "pest or weed control at 140 g/ha", "setting": "[2]; 0.14 kgs/hectare", "result": 0, "unit": "%"}, {"measurement": "pest or weed control at 280 g/ha", "setting": "[2]", "result": 0, "unit": "%"}, {"measurement": "pest or weed control at 560 g/ha", "setting": "[2]; 0.56 kgs/hectare", "result": 60, "unit": "%"}, {"measurement": "pest or weed control at 1120 g/ha", "setting": "[2]; 1.12 kgs/hectare", "result": 80, "unit": "%"}, {"measurement": "pest or weed control at 70 g/ha", "setting": "[3]", "result": 0, "unit": "%"}, {"measurement": "pest or weed control at 140 g/ha", "setting": "[3]; 0.14 kgs/hectare", "result": 10, "unit": "%"}, {"measurement": "pest or weed control at 280 g/ha", "setting": "[3]", "result": 90, "unit": "%"}, {"measurement": "pest or weed control at 560 g/ha", "setting": "[3]; 0.56 kgs/hectare", "result": 95, "unit": "%"}, {"measurement": "pest or weed control at 1120 g/ha", "setting": "[3]; 1.12 kgs/hectare", "result": 95, "unit": "%"}]}, {"smiles": "COC(=O)C(C)Oc1ccc(Oc2ccc(C(F)(F)F)cc2F)cc1", "note": "(stereo not shown) [2-[4-(2-fluoro-4-trifluoromethylphenoxy)phenoxy]propionic acid methyl ester]", "values": [{"measurement": "% Control", "setting": "[4]; 3.9 ppm", "result": 50, "unit": "%"}, {"measurement": "% Control", "setting": "[4]; 7.8 ppm", "result": 100, "unit": "%"}, {"measurement": "% Control", "setting": "[4]; 15.6 ppm", "result": 100, "unit": "%"}, {"measurement": "% Control", "setting": "[4]; 31.25 ppm", "result": 100, "unit": "%"}, {"measurement": "% Control", "setting": "[4]; 62.5 ppm", "result": 100, "unit": "%"}, {"measurement": "% Control", "setting": "[4]; 125 ppm", "result": 100, "unit": "%"}, {"measurement": "% Control", "setting": "[5]; 3.9 ppm", "result": 90, "unit": "%"}, {"measurement": "% Control", "setting": "[5]; 7.8 ppm", "result": 100, "unit": "%"}, {"measurement": "% Control", "setting": "[5]; 15.6 ppm", "result": 100, "unit": "%"}, {"measurement": "% Control", "setting": "[5]; 31.25 ppm", "result": 100, "unit": "%"}, {"measurement": "% Control", "setting": "[5]; 62.5 ppm", "result": 100, "unit": "%"}, {"measurement": "% Control", "setting": "[5]; 125 ppm", "result": 100, "unit": "%"}, {"measurement": "% Control", "setting": "[6]; 3.9 ppm", "result": 60, "unit": "%"}, {"measurement": "% Control", "setting": "[6]; 7.8 ppm", "result": 100, "unit": "%"}, {"measurement": "% Control", "setting": "[6]; 15.6 ppm", "result": 100, "unit": "%"}, {"measurement": "% Control", "setting": "[6]; 31.25 ppm", "result": 100, "unit": "%"}, {"measurement": "% Control", "setting": "[6]; 62.5 ppm", "result": 100, "unit": "%"}, {"measurement": "% Control", "setting": "[6]; 125 ppm", "result": 100, "unit": "%"}, {"measurement": "phytotoxic effect", "setting": "[7]", "result": "inactive"}, {"measurement": "phytotoxic effect", "setting": "[8]", "result": "inactive"}, {"measurement": "phytotoxic effect", "setting": "[9]", "result": "inactive"}, {"measurement": "phytotoxic effect", "setting": "[10]", "result": "inactive"}, {"measurement": "phytotoxic effect", "setting": "[11]", "result": "inactive"}, {"measurement": "phytotoxic effect", "setting": "[12]", "result": "inactive"}, {"measurement": "phytotoxic effect", "setting": "[13]", "result": "inactive"}, {"measurement": "phytotoxic effect", "setting": "[14]", "result": "inactive"}, {"measurement": "phytotoxic effect", "setting": "[15]", "result": "inactive"}, {"measurement": "pest or weed control at 18 g/ha", "setting": "[1]; 0.018 kgs/hectare", "result": 20, "unit": "%"}, {"measurement": "pest or weed control at 35 g/ha", "setting": "[1]; 0.035 kgs/hectare", "result": 70, "unit": "%"}, {"measurement": "pest or weed control at 70 g/ha", "setting": "[1]", "result": 80, "unit": "%"}, {"measurement": "pest or weed control at 114 g/ha", "setting": "[1]; 0.114 kgs/hectare", "result": 100, "unit": "%"}, {"measurement": "pest or weed control at 280 g/ha", "setting": "[1]", "result": 100, "unit": "%"}, {"measurement": "pest or weed control at 18 g/ha", "setting": "[2]; 0.018 kgs/hectare", "result": 20, "unit": "%"}, {"measurement": "pest or weed control at 35 g/ha", "setting": "[2]; 0.035 kgs/hectare", "result": 60, "unit": "%"}, {"measurement": "pest or weed control at 70 g/ha", "setting": "[2]", "result": 90, "unit": "%"}, {"measurement": "pest or weed control at 114 g/ha", "setting": "[2]; 0.114 kgs/hectare", "result": 100, "unit": "%"}, {"measurement": "pest or weed control at 280 g/ha", "setting": "[2]", "result": 100, "unit": "%"}, {"measurement": "pest or weed control at 18 g/ha", "setting": "[3]; 0.018 kgs/hectare", "result": 20, "unit": "%"}, {"measurement": "pest or weed control at 35 g/ha", "setting": "[3]; 0.035 kgs/hectare", "result": 70, "unit": "%"}, {"measurement": "pest or weed control at 70 g/ha", "setting": "[3]", "result": 100, "unit": "%"}, {"measurement": "pest or weed control at 114 g/ha", "setting": "[3]; 0.114 kgs/hectare", "result": 100, "unit": "%"}, {"measurement": "pest or weed control at 280 g/ha", "setting": "[3]", "result": 100, "unit": "%"}, {"measurement": "phytotoxic effect", "setting": "[16]", "result": "inactive"}, {"measurement": "phytotoxic effect", "setting": "[17]", "result": "inactive"}, {"measurement": "phytotoxic effect", "setting": "[18]", "result": "inactive"}, {"measurement": "phytotoxic effect", "setting": "[19]", "result": "inactive"}]}]}
